Test results from patent publication US6610853B1, “N-(phenylsulfonyl)picolinamide derivatives, process for producing the same, and herbicide” (Kureha Kagaku Kogyo K.K., priority 2000, dated 2003).

Columns and labels:
Assay in all cases: Test on herbicidal activity by foliar application
Assay type in all cases: in vivo
Conditions in all cases: foliar spray, 1 kg/ha, plants at 1-2 leaf stage in pots, evaluated 14 days after spraying
Convolvulus arvensis = test system: Convolvulus arvensis
Description: (§1) Test on Herbicidal Activity by Foliar Application: Herbicidal solutions of each test compounds, which were prepared by dissolving at predetermined concentrations such a wettable powder of the test compound as that described in the above Formulation Example, were sprayed at dosages of 1 kg/ha over foliar parts of Amaranthus retroflexus, Bidens pilosa, Sinapis arvensis, Stellaria media, Solanum nigrum, Abutilon theophrasti, Convolvulus arvensis, Matricaria chamomilla, Galium aparine, Veronica hederaefolia, and Setaria viridis (each test plant is 1-2 leaf stage) which were grown in pots. 14 days latter after spraying, its herbicidal activity was evaluated in accordance with the below-described system. Herbicidal Activity 1: less than 30% inhibition 2: 30% or more-50% inhibition 3: 50% or more-70% inhibition 4: 70% or more-90% inhibition 5: 90% or more inhibition

Galium aparine = test system: Galium aparine
Description: as §1

Sinapis arvensis = test system: Sinapis arvensis
Description: as §1

Amaranthus retroflexus = test system: Amaranthus retroflexus
Description: as §1

Stellaria media = test system: Stellaria media
Description: as §1

Matricaria chamomilla = test system: Matricaria chamomilla
Description: as §1

Abutilon theophrasti = test system: Abutilon theophrasti
Description: as §1

Setaria viridis = test system: Setaria viridis
Description: as §1

Solanum nigrum = test system: Solanum nigrum
Description: as §1

Veronica hederaefolia = test system: Veronica hederaefolia
Description: as §1

Bidens pilosa = test system: Bidens pilosa
Description: as §1

SMILES	Herbicidal activity, Convolvulus arvensis (Convolvulus arvensis)	Herbicidal activity, Galium aparine (Galium aparine)	Herbicidal activity, Sinapis arvensis (Sinapis arvensis)	Herbicidal activity, Amaranthus retroflexus (Amaranthus retroflexus)	Herbicidal activity, Stellaria media (Stellaria media)	Herbicidal activity, Matricaria chamomilla (Matricaria chamomilla)	Herbicidal activity, Abutilon theophrasti (Abutilon theophrasti)	Herbicidal activity, Setaria viridis (Setaria viridis)	Herbicidal activity, Solanum nigrum (Solanum nigrum)	Herbicidal activity, Veronica hederaefolia (Veronica hederaefolia)	Herbicidal activity, Bidens pilosa (Bidens pilosa)
COC(=O)c1ccccc1S(=O)(=O)NC(=O)c1ccc(OC)c(Br)n1 [Compound I-265, 2-[[[(6-Bromo-5-methoxypyridin-2-yl)carbonyl]-amino]sulfonyl]benzoic acid methyl ester]	3 (50% or more-70% inhibition)	4 (70% or more-90% inhibition)	5 (90% or more inhibition)	5 (90% or more inhibition)	5 (90% or more inhibition)	5 (90% or more inhibition)	5 (90% or more inhibition)	4 (70% or more-90% inhibition)	5 (90% or more inhibition)	3 (50% or more-70% inhibition)	5 (90% or more inhibition)
COc1cc(Cl)nc(C(=O)NS(=O)(=O)c2cccc(Cl)c2Cl)c1 [Compound I-345, N-[(2,3-Dichlorophenyl)sulfonyl]-6-chloro-4-methoxypyridine-2-carboxamide]	5 (90% or more inhibition)	4 (70% or more-90% inhibition)	5 (90% or more inhibition)	3 (50% or more-70% inhibition)	4 (70% or more-90% inhibition)	4 (70% or more-90% inhibition)	2 (30% or more-50% inhibition)	2 (30% or more-50% inhibition)	5 (90% or more inhibition)	3 (50% or more-70% inhibition)	5 (90% or more inhibition)
O=C(NS(=O)(=O)c1c(Cl)cccc1Cl)c1cc(Cl)cc(Cl)n1 [Compound I-557, 4,6-Dichloro-N-[(2,6-Dichlorophenyl)sulfonyl]-pyridine-2-carboxamide]	5 (90% or more inhibition)	5 (90% or more inhibition)	5 (90% or more inhibition)	5 (90% or more inhibition)	5 (90% or more inhibition)	5 (90% or more inhibition)	5 (90% or more inhibition)	5 (90% or more inhibition)	5 (90% or more inhibition)	5 (90% or more inhibition)	5 (90% or more inhibition)
COc1cc(Cl)cc(C(=O)NS(=O)(=O)c2c(Cl)cccc2Cl)n1 [Compound I-581, N-[(2,6-Dichlorophenyl)sulfonyl]-4-chloro-6-methoxy-2-pyridinecarboxamide]	4 (70% or more-90% inhibition)	5 (90% or more inhibition)	5 (90% or more inhibition)	5 (90% or more inhibition)	5 (90% or more inhibition)	5 (90% or more inhibition)	4 (70% or more-90% inhibition)	4 (70% or more-90% inhibition)	5 (90% or more inhibition)	4 (70% or more-90% inhibition)	5 (90% or more inhibition)
O=C(NS(=O)(=O)c1c(Cl)cccc1Cl)c1cccc(Cl)n1 [Compound I-591, N-[(2,6-Dichlorophenyl)sulfonyl]-6-chloro-2-pyridinecarboxamide]	5 (90% or more inhibition)	5 (90% or more inhibition)	5 (90% or more inhibition)	5 (90% or more inhibition)	5 (90% or more inhibition)	5 (90% or more inhibition)	5 (90% or more inhibition)	1 (less than 30% inhibition)	5 (90% or more inhibition)	5 (90% or more inhibition)	5 (90% or more inhibition)
COc1ccc(C(=O)NS(=O)(=O)c2c(Cl)cccc2Cl)nc1 [Compound I-594, N-[(2,6-Dichlorophenyl)sulfonyl]-5-methoxy-2-pyridinecarboxamide]	2 (30% or more-50% inhibition)	4 (70% or more-90% inhibition)	5 (90% or more inhibition)	2 (30% or more-50% inhibition)	5 (90% or more inhibition)	4 (70% or more-90% inhibition)	4 (70% or more-90% inhibition)	2 (30% or more-50% inhibition)	2 (30% or more-50% inhibition)	4 (70% or more-90% inhibition)	4 (70% or more-90% inhibition)
COc1cc(Cl)nc(C(=O)NS(=O)(=O)c2c(Cl)cccc2Cl)c1 [Compound I-615, 6-Chloro-N-[(2,6-Dichlorophenyl)sulfonyl]-4-methoxypyridine-2-carboxamide]	4 (70% or more-90% inhibition)	5 (90% or more inhibition)	5 (90% or more inhibition)	4 (70% or more-90% inhibition)	5 (90% or more inhibition)	5 (90% or more inhibition)	5 (90% or more inhibition)	4 (70% or more-90% inhibition)	5 (90% or more inhibition)	4 (70% or more-90% inhibition)	5 (90% or more inhibition)
COc1ccc(C(=O)NS(=O)(=O)c2c(Cl)cccc2Cl)nc1Cl [Compound I-618, N-[(2,6-Dichlorophenyl)sulfonyl]-6-chloro-5-methoxy-2-pyridinecarboxamide]	3 (50% or more-70% inhibition)	4 (70% or more-90% inhibition)	5 (90% or more inhibition)	2 (30% or more-50% inhibition)	5 (90% or more inhibition)	5 (90% or more inhibition)	5 (90% or more inhibition)	2 (30% or more-50% inhibition)	5 (90% or more inhibition)	5 (90% or more inhibition)	5 (90% or more inhibition)
